Laboratory results reported in ChEMBL document CHEMBL2007661, “Compounds: GSK PKIS; Assays: UNC Frye lab” (2012).
Several values for one entry are separate records, joined by “and”; a condition that tells them apart may be missing. Equal entries are not always repeated.

How the values were obtained:
[1] = target: T1, Inhibitor of nuclear factor kappa-B kinase subunit beta (Homo sapiens) (UniProt O14920); conditions: at 1 µM
T1 sequence (whole entry): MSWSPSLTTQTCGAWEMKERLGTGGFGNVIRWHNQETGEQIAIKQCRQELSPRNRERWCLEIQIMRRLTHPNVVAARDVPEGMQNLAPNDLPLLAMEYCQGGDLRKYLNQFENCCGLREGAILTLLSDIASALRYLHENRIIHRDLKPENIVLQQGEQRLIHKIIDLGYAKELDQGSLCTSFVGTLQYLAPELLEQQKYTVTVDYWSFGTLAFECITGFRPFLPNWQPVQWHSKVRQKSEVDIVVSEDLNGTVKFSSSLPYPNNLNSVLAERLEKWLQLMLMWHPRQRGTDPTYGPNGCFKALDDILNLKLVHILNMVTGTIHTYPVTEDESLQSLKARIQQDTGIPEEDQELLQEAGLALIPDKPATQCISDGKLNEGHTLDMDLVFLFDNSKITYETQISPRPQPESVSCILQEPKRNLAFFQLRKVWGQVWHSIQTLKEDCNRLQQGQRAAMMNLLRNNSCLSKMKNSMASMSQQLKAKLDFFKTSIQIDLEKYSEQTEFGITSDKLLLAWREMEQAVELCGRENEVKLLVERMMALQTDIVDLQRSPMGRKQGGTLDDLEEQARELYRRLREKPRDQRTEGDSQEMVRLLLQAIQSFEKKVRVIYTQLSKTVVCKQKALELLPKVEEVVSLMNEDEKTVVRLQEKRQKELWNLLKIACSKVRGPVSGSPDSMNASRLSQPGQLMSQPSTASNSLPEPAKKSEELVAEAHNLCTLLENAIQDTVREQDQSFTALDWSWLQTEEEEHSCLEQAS

[2] = target: T2, Serine/threonine-protein kinase TBK1 (Homo sapiens) (UniProt Q9UHD2); conditions: at 1 µM
T2 sequence (whole entry): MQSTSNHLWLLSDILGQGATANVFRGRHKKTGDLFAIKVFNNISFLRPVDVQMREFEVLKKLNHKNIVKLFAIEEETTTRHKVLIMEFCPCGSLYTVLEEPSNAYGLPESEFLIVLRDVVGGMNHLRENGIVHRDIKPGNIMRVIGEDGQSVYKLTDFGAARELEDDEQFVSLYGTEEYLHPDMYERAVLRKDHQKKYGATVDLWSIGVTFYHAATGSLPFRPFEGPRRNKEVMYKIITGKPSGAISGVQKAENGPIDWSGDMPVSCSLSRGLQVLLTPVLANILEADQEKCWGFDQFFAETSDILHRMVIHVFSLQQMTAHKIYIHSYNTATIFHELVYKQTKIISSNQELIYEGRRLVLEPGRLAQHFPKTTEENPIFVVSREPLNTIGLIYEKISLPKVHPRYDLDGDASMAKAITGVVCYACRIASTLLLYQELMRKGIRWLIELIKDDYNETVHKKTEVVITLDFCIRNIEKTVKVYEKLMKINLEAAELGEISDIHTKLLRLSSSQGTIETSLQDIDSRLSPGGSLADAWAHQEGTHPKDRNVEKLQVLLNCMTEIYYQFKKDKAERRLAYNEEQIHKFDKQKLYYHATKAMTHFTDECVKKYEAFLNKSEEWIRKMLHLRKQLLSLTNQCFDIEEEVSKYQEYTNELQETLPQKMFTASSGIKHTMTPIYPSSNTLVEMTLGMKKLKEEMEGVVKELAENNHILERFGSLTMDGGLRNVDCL

Compound | inhibition [1] | inhibition [2]
Cc1ccc2c(-c3ccnc(Nc4ccccc4)n3)c(-c3ccc(F)cc3)nn2n1 | -1% and -4% | -1% and -3%
COc1cc(C=NNc2ncnc3c2cnn3-c2ccccc2)ccc1O | 2% | 38% and 42%
CCCN(CCS(C)(=O)=O)Cc1ccc(-c2ccc3ncnc(Nc4ccc(OCc5cccc(F)c5)c(Cl)c4)c3c2)o1 | -1% and -5% | 7% and 10%
COc1cccc(-n2nc(C)c3c(N/N=C(\C)c4ccncc4)ncnc32)c1 | -3% | 4% and 2%
NS(=O)(=O)c1ccc(Nc2ncc(-c3ccccc3)o2)cc1 | -2% and 2% | 10% and 5%
Cc1cccc(-c2n[nH]cc2-c2ccc3ncccc3n2)n1 | -4% and -1% | -10% and -6%
COC(=O)Nc1nc2ccc(S(=O)(=O)c3ccc(NC(=O)Nc4cc(C(F)(F)F)ccc4F)cc3)cc2[nH]1 | -6% and -5% | 0%
CS(=O)(=O)CCNCc1ccc(-c2ccc3ncnc(Nc4ccc(OCc5ccccc5)c(Cl)c4)c3c2)o1 | 1% | -2% and 0%
Cc1nc(-c2ccccc2)n2nc(NCCCN3CCOCC3)ncc12 | -2% and 2% | 5% and 8%
COc1cccc(-n2ncc3c(N/N=C/c4ccc(F)cc4)ncnc32)c1 | 1% and -3% | 5% and 11%
CC(C)(CO)CNC(=O)c1ccc2c(c1)/C(=N/Nc1ccc(S(N)(=O)=O)cc1)C(=O)N2 | -2% | 87% and 88%
CS(=O)(=O)CCNCc1ccc(-c2ccc3ncnc(Nc4ccc(OCc5ccccc5)cc4)c3c2)o1 | -2% and -3% | -1% and -2%
COc1ccc2[nH]c3c4[nH]c5ccc(OC)cc5c4c4c(c3c2c1)C(=O)NC4=O | -1% and -5% | 55% and 56%
Fc1cccc(COc2ccc(Nc3ncncc3C#Cc3ccccc3)cc2Cl)c1 | -6% and -3% | -6% and -7%
NS(=O)(=O)c1ccc(N/N=C2\C(=O)Nc3ccc(C(=O)NCc4ccncc4)cc32)cc1 | -1% and 0% | 59% and 60%
O=C1NC(=O)C(N2CCc3ccccc32)=C1c1ccc(Cl)cc1 | 3% and 2% | 1%

Compound | inhibition [1] | inhibition [2]
CCn1cc(-c2ccnc3[nH]ccc23)c(-c2cccc(NC(=O)Nc3ccc(OCc4ccccc4)cc3)c2)n1 | -3% and 0% | -4% and -1%
c1ccc(-c2nc3n(c2-c2ccc4c(c2)OCO4)CCC3)nc1 | -5% and -3% | 5%
CC1(C)CC(n2cnc(-c3ccc(F)cc3)c2-c2ccnc(N)n2)CC(C)(C)N1 | -3% and -4% | -5% and -3%
CC1=C(C(=O)Nc2ccc3[nH]ncc3c2)C(c2ccc(Cl)c(Cl)c2)CC(=O)N1 (stereo not drawn) | 2% | 3% and 2%
Nc1nc(-c2ccc3c(c2)C(=Cc2cc(Br)c(O)c(Br)c2)C(=O)N3)cs1 | -8% | 7% and 5%
COc1cc(/C=N/Nc2ncnc3c2cnn3C(C)C)ccc1O | 4% and 0% | 9% and 8%
CN(c1ccc(NC(=O)NCCN2CCOCC2)cc1)c1ccnc(Nc2ccc(CS(C)(=O)=O)cc2)n1 | 2% and -2% | 3% and 2%
COc1cc(C)c(N(C)C(=O)CN(C)C)cc1Nc1nc(Nc2cccc(F)c2C(N)=O)c2cc[nH]c2n1 | -3% and -6% | -4% and -3%
Cc1nnc(-c2ccc(C)c(-c3ccc(C(=O)Nc4cccc(C#N)c4)cc3)c2)o1 | 0% and -2% | -2%
CC(C)COC(=O)c1ccc2c(c1)/C(=C/Nc1ccc(S(N)(=O)=O)cc1)C(=O)N2 | 0% and -1% | 93% and 98%
COc1cc(C)c(NC(=O)CN(C)C)cc1Nc1nc(Nc2cccc(F)c2C(N)=O)c2cc[nH]c2n1 | -1% and 18% | 30% and 32%
Fc1ccc(-c2nn3ccccc3c2-c2ccncc2)cc1 | -5% | -4% and -8%
NS(=O)(=O)c1ccc(N/N=C2\C(=O)Nc3ccc(C(=O)NCCCn4ccnc4)cc32)cc1 | -1% | 42% and 41%
NS(=O)(=O)c1ccc(N/N=C2\C(=O)Nc3cccc(CCc4ccncc4)c32)cc1 | -7% | 29% and 25%
CCn1c(-c2nonc2N)nc2c(N3CCCC3)nccc21 | -6% and -5% | -8% and -4%

Next, values leading:

inhibition [1] | inhibition [2] | Compound
-5% and -3% | -3% and -1% | CS(=O)(=O)CCNCc1ccc(-c2ccc3ncnc(Nc4ccc(OCc5ccccc5)c(C(F)(F)F)c4)c3c2)o1
-3% and 3% | -5% and -2% | COC(=O)Nc1nc2cc(Oc3ccc(NC(=O)Nc4cccc(C(=O)O)c4)cc3)ccc2[nH]1
-7% and -9% | 0% and -1% | Nc1ncnc2occ(-c3ccc(NC(=O)Nc4cccc(C(F)(F)F)c4)cc3)c12
-2% and -1% | -2% and 1% | CS(=O)(=O)CCNCc1nc(-c2ccc3ncnc(Nc4ccc(OCc5cccc(C(F)(F)F)c5)cc4)c3c2)cs1
-4% and -7% | 3% and 0% | Nc1nc(-c2ccccn2)c(-c2ccc3ncccc3n2)s1
-7% and -6% | -6% and -3% | CCc1ccc(Oc2nccc(-c3c(-c4ccc(F)cc4)ncn3C3CCNCC3)n2)cc1
-1% and -2% | 4% and 1% | CCn1c(-c2nonc2N)nc2cnc(Oc3cccc(NC(=O)c4ccc(N(C)C)cc4)c3)cc21
-2% and -4% | 7% and 2% | COc1cc(N2CCN(C(C)C)CC2)ccc1Nc1nc(Nc2cccc3ncccc23)c2cc[nH]c2n1
-2% and -4% | -3% and 1% | Nc1nccc(-c2c(-c3ccc(F)cc3)nn3cc(C(F)(F)F)ccc23)n1
-1% and -4% | 21% and 4% | NC(=O)c1sc(-n2cnc3ccc(C(F)(F)F)cc32)cc1OCc1ccccc1Br
-1% and -4% | -2% and -4% | CS(=O)(=O)Nc1ccc(-c2cc(-c3ccccc3)cc(C(N)=O)c2N)cc1
-4% and -5% | 53% and 45% | COc1cc(Nc2ncc3c(C)nc(-c4cccc(C(F)(F)F)c4)n3n2)cc(OC)c1OC
-2% and -6% | 0% and 3% | COc1ccc(C2=C(N3CCc4ccccc43)C(=O)NC2=O)cc1
0% and 5% | -2% | COC(=O)Nc1nc2cc(Oc3cccc(NC(=O)Nc4cc(C(F)(F)F)ccc4F)c3)ccc2[nH]1
-2% and 4% | 13% and 7% | CCCN1CCC(c2ccc(Nc3nc(Nc4cc(F)ccc4C(N)=O)c4cc[nH]c4n3)c(OC)c2)CC1
0% and 1% | 0% and 2% | O=C(Nc1ccc(Oc2ccc3[nH]c(NC(=O)c4ccco4)nc3c2)cc1)Nc1cc(C(F)(F)F)ccc1F
4% and -2% | 7% and 8% | CN(C)C(=O)O[C@H]1CN[C@H](C#Cc2cc3ncnc(Nc4ccc(OCc5cccc(F)c5)c(Cl)c4)c3s2)C1
-6% | 3% and 5% | CS(=O)(=O)Nc1cccc(-c2ccc3c(NC(=O)C4CC4)n[nH]c3c2)c1
-4% and -7% | 26% and 31% | O=C(O[C@H]1CN[C@H](C#Cc2cc3ncnc(Nc4ccc5c(cnn5Cc5ccccc5)c4)c3s2)C1)N1CCOCC1
-2% and 4% | 1% and 5% | Cc1nn(C)c2cc(N(C)c3ccnc(Nc4cccc(S(N)(=O)=O)c4)n3)ccc12
-6% | 24% and 28% | COc1cc2c(cc1Nc1nc(N3CCc4ccccc43)c3cc[nH]c3n1)N(C(=O)CN(C)C)CC2
-2% and 0% | 11% and 4% | C[C@@H](Oc1cc(-n2cnc3ccc(OCC4CCN(C)CC4)cc32)sc1C(N)=O)c1ccccc1C(F)(F)F
-2% and 2% | 6% and 3% | O=C(Nc1ccc(Oc2ccc3[nH]c(NC(=O)c4ccccc4)nc3c2)cc1)Nc1cc(C(F)(F)F)ccc1F
